These results are taken from patent publication US20210070748A1, “INHIBITORS OF BRUTONS TYROSINE KINASE” (Pharmacyclics LLC, priority 2015, published 2021).

Common to all, as to format: biochemical
In one assay the target is SRC (Homo sapiens, UniProt P12931). The experiment in a line: Inhibition of a panel of kinases, in vitro HotSpot kinase assay: SRC. Particulars: D-compounds panel data; 1 μM ATP. On the procedure:
(§1) The degree of inhibition of a panel of kinases is determined using the in vitro HotSpot kinase assay (purified enzymes, ^33P-ATP, an appropriate substrate and 1 μM ATP).

A further assay has as its target EGFR (Homo sapiens, UniProt P00533). Description: Inhibition of a panel of kinases, in vitro HotSpot kinase assay: EGFR. Particulars: D-compounds panel data; 1 μM ATP. The procedure: as §1
The target of another assay is T1, BTK-WT (Homo sapiens, UniProt Q06187).
T1 construct: purified from insect cells as a full-length construct containing an N-terminal 6X-His tag; His6 (N); made in house; host or cells: insect cells (baculovirus Sf21 in Method B)
T1 sequence (Q06187 whole entry): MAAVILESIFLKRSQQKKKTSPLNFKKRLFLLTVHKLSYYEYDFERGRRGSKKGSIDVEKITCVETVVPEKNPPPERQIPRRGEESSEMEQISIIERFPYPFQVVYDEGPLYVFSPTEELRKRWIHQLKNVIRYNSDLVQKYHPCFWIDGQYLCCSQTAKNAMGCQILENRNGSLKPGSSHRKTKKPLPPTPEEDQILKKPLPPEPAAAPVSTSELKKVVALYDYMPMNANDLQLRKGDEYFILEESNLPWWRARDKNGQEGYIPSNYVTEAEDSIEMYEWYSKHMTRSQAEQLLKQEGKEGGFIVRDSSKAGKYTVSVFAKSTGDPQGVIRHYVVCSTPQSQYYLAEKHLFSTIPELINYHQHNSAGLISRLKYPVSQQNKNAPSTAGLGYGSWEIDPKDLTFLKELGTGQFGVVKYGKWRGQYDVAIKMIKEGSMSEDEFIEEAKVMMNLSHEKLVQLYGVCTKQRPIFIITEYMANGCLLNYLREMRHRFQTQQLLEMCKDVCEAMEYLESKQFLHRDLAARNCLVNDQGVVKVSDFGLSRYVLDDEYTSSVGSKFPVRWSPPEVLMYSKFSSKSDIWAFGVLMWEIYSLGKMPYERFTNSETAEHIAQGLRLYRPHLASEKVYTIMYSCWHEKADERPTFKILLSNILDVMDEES
Description: Btk in vitro inhibitory activity (one of Method A TR-FRET, Method B electrophoretic mobility shift, Method C radiometric filter binding). Particulars: D-compounds panel data; read-out: IC50 BTK-WT. (In general: In EMSA bound probe runs differently from free probe, usually more slowly.)

For another assay, the target named is T2, JAK3 (Homo sapiens, UniProt P52333).
T2 sequence (P52333 1-1124): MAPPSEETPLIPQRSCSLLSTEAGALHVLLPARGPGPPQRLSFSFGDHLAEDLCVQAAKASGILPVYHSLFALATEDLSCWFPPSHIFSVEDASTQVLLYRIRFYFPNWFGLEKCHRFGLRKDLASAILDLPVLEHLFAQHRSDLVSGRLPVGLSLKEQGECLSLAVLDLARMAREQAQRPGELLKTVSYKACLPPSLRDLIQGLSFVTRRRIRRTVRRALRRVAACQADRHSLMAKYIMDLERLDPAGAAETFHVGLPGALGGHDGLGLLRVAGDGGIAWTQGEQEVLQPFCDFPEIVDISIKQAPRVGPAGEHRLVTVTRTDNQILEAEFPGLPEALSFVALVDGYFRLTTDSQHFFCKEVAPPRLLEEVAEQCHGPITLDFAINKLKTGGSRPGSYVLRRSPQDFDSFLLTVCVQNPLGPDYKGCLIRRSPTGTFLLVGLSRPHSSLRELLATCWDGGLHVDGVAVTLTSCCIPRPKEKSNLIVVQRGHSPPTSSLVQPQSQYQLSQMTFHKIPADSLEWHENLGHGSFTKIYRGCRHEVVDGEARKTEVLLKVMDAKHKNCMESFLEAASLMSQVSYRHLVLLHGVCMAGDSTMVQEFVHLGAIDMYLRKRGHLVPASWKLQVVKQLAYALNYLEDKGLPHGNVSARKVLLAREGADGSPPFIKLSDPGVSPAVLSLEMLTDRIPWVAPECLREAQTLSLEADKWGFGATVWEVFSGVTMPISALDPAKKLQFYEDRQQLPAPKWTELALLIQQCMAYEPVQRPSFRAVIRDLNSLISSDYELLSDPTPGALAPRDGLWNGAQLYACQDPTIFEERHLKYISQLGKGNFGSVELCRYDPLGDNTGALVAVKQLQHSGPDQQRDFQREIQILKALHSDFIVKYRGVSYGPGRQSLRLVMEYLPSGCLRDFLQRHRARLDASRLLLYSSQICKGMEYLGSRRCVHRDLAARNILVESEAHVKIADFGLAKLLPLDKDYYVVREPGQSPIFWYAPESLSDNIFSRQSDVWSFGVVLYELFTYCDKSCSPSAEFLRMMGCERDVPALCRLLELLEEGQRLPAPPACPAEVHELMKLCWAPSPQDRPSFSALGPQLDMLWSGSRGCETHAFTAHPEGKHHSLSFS
The experiment in a line: Inhibition of a panel of kinases, in vitro HotSpot kinase assay: JAK3. Particulars: D-compounds panel data; 1 μM ATP; read-out: IC50 JAK3.

EGFR, sequence (P00533 25-1210): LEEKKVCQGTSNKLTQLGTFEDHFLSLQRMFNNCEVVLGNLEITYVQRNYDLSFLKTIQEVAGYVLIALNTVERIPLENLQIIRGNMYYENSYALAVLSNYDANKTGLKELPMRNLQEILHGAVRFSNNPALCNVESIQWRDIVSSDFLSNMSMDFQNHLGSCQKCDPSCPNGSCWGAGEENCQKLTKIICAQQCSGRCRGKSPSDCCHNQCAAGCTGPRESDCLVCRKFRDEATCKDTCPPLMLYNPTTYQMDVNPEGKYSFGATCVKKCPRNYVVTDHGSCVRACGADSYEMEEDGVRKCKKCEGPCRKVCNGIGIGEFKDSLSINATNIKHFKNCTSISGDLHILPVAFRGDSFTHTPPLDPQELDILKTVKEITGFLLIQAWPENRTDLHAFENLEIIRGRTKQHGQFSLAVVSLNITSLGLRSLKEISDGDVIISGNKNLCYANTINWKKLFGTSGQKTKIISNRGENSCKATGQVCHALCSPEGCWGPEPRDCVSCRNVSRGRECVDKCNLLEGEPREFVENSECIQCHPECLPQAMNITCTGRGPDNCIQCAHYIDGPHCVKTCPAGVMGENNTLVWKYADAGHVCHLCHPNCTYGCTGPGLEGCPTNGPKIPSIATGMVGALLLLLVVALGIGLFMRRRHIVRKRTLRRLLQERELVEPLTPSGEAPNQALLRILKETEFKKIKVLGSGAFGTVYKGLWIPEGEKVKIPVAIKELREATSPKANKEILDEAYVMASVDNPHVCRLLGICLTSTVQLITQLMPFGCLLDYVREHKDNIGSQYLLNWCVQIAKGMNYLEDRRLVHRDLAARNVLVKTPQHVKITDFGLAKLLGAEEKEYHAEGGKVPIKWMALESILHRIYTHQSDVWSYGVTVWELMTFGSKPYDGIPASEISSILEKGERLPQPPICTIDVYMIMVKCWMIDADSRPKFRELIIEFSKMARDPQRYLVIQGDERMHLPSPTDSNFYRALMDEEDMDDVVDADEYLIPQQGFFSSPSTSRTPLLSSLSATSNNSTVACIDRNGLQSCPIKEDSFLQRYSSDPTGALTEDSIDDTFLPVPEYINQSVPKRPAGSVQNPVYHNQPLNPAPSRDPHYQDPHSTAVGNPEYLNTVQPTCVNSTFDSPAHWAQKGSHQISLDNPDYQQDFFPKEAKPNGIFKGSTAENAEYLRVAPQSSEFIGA
SRC, sequence (P12931 whole entry): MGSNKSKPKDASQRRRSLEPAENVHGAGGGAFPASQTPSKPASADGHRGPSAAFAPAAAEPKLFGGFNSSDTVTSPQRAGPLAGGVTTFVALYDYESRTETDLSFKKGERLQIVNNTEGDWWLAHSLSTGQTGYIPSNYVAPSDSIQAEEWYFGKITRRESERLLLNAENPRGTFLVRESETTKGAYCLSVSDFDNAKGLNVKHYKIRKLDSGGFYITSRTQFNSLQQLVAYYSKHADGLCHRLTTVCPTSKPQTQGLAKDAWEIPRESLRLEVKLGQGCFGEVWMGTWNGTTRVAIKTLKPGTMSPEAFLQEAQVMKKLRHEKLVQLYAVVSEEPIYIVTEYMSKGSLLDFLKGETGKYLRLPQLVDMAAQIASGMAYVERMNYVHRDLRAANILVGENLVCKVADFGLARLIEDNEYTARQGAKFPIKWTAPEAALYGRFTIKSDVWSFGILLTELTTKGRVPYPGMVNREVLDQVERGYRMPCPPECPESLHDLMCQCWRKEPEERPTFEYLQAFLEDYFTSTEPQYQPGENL

Consider `Cc1cc(Nc2cc(N3CCC[C@@H](NC(=O)N(C)C)[C@H]3C)cnc2C(N)=O)sn1` [Example D-175, 5-[(2R,3R)-3-[(dimethylcarbamoyl)amino]-2-methylpiperidin-1-yl]-3-[(3-methyl-1,2-thiazol-5-yl)amino]pyridine-2-carboxamide], for which the IC50 against SRC was in the range of 0.1 to 1 µM; against EGFR it was 1 to 10 µM; on BTK-WT, 0.01 to 0.1 µM; on JAK3, 1 to 10 µM.
With `Cn1cc(Nc2nc(N3CCC[C@@H](n4ccc5cc(C6CC6)ncc5c4=O)C3)cnc2C(N)=O)cn1` [Example D-225, 5-[(3R)-3-(6-cyclopropyl-1-oxo-1,2-dihydro-2,7-naphthyridin-2-yl)piperidin-1-yl]-3-[(1-methyl-1H-pyrazol-4-yl)amino]pyrazine-2-carboxamide], the IC50 at SRC was 0.01 to 0.1 µM; at EGFR it was 1 to 10 µM; on BTK-WT, ≤ 0.01 µM; on JAK3, 0.1 to 1 µM.
For `C[C@@H]1[C@H](NC(=O)c2ccc(C3CC3)cc2)CCCN1c1cnc(C(N)=O)c(Nc2cnn(CCN(C)C)c2)n1` [Example D-187, 5-[(2R,3R)-3-(4-cyclopropylbenzamido)-2-methylpiperidin-1-yl]-3-({1-[2-(dimethylamino)ethyl]-1H-pyrazol-4-yl}amino)pyrazine-2-carboxamide], in that order: 0.1 to 1 µM, 1 to 10 µM, 0.01 to 0.1 µM and 1 to 10 µM.
Take `C[C@@H]1[C@H](NC(=O)c2ccc(C3CC3)cc2)CCCN1c1cnc(C(N)=O)c(Nc2ccc(OC3CCN4CCCC4C3)cc2)n1` (stereo partly drawn) [Example D-211, 5-[(2R,3R)-3-(4-cyclopropylbenzamido)-2-methylpiperidin-1-yl]-3-{[4-(octahydroindolizin-7-yloxy)phenyl]amino}pyrazine-2-carboxamide]: the IC50 against SRC was 0.01 to 0.1 µM; at EGFR, 1 to 10 µM; on BTK-WT it was ≤ 0.01 µM; at JAK3 it was 0.1 to 1 µM.
Regarding `Cn1cc(Nc2nc(N3C[C@@H](NC(=O)c4ccc(C5CC5)cc4)CC(F)(F)C3)cnc2C(N)=O)cn1` [Example D-189, 5-[(5S)-5-(4-cyclopropylbenzamido)-3,3-difluoropiperidin-1-yl]-3-[(1-methyl-1H-pyrazol-4-yl)amino]pyrazine-2-carboxamide], the 50% inhibitory concentration (IC50) is > 10 µM against SRC, 1 to 10 µM at EGFR, 0.1 to 1 µM on BTK-WT and 1 to 10 µM on JAK3.
For the compound `C[C@@H]1[C@H](NC(=O)c2ccc(C(C)(C)C)cc2F)CCCN1c1cnc(C(N)=O)c(Nc2cnn(C)c2)n1` [Example D-223, 5-[(2R,3R)-3-(4-tert-butyl-2-fluorobenzamido)-2-methylpiperidin-1-yl]-3-[(1-methyl-1H-pyrazol-4-yl)amino]pyrazine-2-carboxamide], the half-inhibitory concentration (IC50) against SRC is 0.1 to 1 µM; against EGFR it was 1 to 10 µM; at BTK-WT it was ≤ 0.01 µM; at JAK3, > 10 µM.
Turning to `C[C@@H]1[C@H](NC(=O)c2ccc(C(C)(C)C)s2)CCCN1c1cnc(C(N)=O)c(Nc2cnn(C)c2)n1` [Example D-229, 5-[(2R,3R)-3-(5-tert-butylthiophene-2-amido)-2-methylpiperidin-1-yl]-3-[(1-methyl-1H-pyrazol-4-yl)amino]pyrazine-2-carboxamide], the IC50 was 0.1 to 1 µM at SRC, 1 to 10 µM at EGFR, ≤ 0.01 µM at BTK-WT and > 10 µM at JAK3.
For `CN1CCN(c2ccc(Nc3nc(N4CCC[C@@H](n5ccc6cc(C7CC7)cc(F)c6c5=O)C4)cnc3C(N)=O)cc2)CC1` [Example D-174, 5-[(3R)-3-(6-cyclopropyl-8-fluoro-1-oxo-1,2-dihydroisoquinolin-2-yl)piperidin-1-yl]-3-{[4-(4-methylpiperazin-1-yl)phenyl]amino}pyrazine-2-carboxamide], in that order: 0.01 to 0.1 µM, 0.1 to 1 µM, ≤ 0.01 µM and 0.1 to 1 µM.

As usually defined, the IC50 is the concentration needed to halve the response being measured.
